Laboratory results taken from US4354973A, “Pyrrolo[3,4-d][2]benzazepines” (Hoffmann-La Roche Inc., priority 1981, dated 1982).

Assays:
[1] = system: mice; assay: Footshock (fighting episodes of pairs of mice); type: in vivo; settings: Mus musculus; pairs of mice pretreated 1 hour prior to second shocking; 3 out of 3 pairs blocked from fighting; read-out: Footshock, 100% blocking dose
Procedure: A pair of mice is confined under a one liter beaker placed on a grid which presents shock to the feet. At least 5 fighting episodes are elicited in a two-minute period. Pairs of mice are marked and pretreated 1 hour prior to a second shocking. Logarithmic dose intervals are utilized up to a maximum of 100 mg/kg. At the 100% blocking dose, 3 out of 3 pairs must be blocked from fighting.

[2] = system: male mice; assay: Inclined Screen (paralyzing effects); type: in vivo; settings: Mus musculus; groups of 6 male mice; at least 4 hours observation; maximum dose 500 mg/kg; read-out: Inclined Screen, PD50
Procedure: Groups of 6 male mice are given the test drug (maximum dose of 500 mg/kg) and then are left on the inclined screen at least 4 hours for observation of paralyzing effects severe enough to cause them to slide off the screen. If activity is observed, additional doses are taken until at least two are reached at which some, but not all of the animals slide off the screen. Doses at which mice fall off the screen due to toxicity or excitation are not included in the calculation of PD50.

[3] = system: Cats; assay: Unanesthetized Cat (minimum symptoms, usually ataxia); type: in vivo; settings: Felis catus, oral, up to three cats/dose
Procedure: Cats are treated orally and observed for minimum symptoms-usually ataxia. One cat is used at a dose of 50 mg/kg. If activity is present, up to three cats/dose are used. Results are given as minimum effective dose.

[4] = Toxicity (LD50); settings: in vivo, po

SMILES	ED100 [1]	ED50 [2]	minimal effective dose [3]	LD50 [4]
Clc1ccc2c(c1)C(c1ccccc1Cl)=NCc1c[nH]cc1-2 [8-Chloro-6-(2-chlorophenyl)-2H,4H-pyrrolo[3,4-d][2]benzazepine]	1 mg/kg	400 mg/kg	0.25 mg/kg	> 1000 mg/kg
CS(=O)(=O)O.Cc1[nH]cc2c1-c1ccc(Cl)cc1C(c1ccccc1F)=NC2 [8-Chloro-6-(2-fluorophenyl)-1-methyl-2H,4H-pyrrolo[3,4-d][2]benzazepine methanesulfonate]	2 mg/kg	400 mg/kg	2.5 mg/kg	> 1000 mg/kg
Clc1ccc2c(c1)C(c1ccccc1)=NCc1c[nH]cc1-2 [8-Chloro-6-phenyl-2H,4H-pyrrolo[3,4-d][2]benzazepine]	25 mg/kg	400 mg/kg	2.5 mg/kg	> 1000 mg/kg
